Measurements from the supplement of paper PMC4862054.

How the values were obtained:
BT-474 [1] = conditions: 72 h
Outline: (§1)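 For viability, cells received 2.5 µl CellTiter-Blue for 2 h at 37 °C and fluorescence was read at 560/590 nm. Before this, breast cancer cell lines in 20 µl suspension had been incubated for 72 h on 384-well plates pre-loaded with compound dissolved in 5 µl medium. EC50 was obtained from a percent-inhibition dose-response fit censored at the highest concentration, after normalisation of each plate to vehicle and a positive kill control; rows with a zero drug sensitivity score were discarded.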

Hs578T [2] = conditions: 72 h
Outline: as §1

BT-549 = conditions: 72 h
Outline: as §1

HCC1143 [3] = conditions: 72 h
Outline: as §1

MDA-MB-436 [4] = conditions: 72 h
Outline: as §1

CAL-120 [5] = conditions: 72 h
Outline: as §1

MDA-MB-231 [6] = conditions: 72 h
Outline: as §1

HCC1599 [7] = conditions: 72 h
Outline: as §1

HCC1937 = conditions: 72 h
Outline: as §1

MDA-MB-468 [8] = conditions: 72 h
Outline: as §1

MFM-223 [9] = conditions: 72 h
Outline: as §1

SK-BR-3 [10] = conditions: 72 h
Outline: as §1

BT-474 [11] = test: normalised viability (% of control), CellTiter-Blue; higher = more viable cells (100 = DMSO, 0 = benzethonium chloride kill control); conditions: incubation time: 72 h
Experimental: (§2)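 DSRT, CellTiter-Blue viability, 72 h incubation. Signal is normalised to DMSO and benzethonium chloride controls. Value is the normalised response at dose 1.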

MDA-MB-231 [12] = test: as above; conditions: incubation time: 72 h
Experimental: as §2

HDQ-P1 [13] = test: as above; conditions: incubation time: 72 h
Experimental: as §2

SK-BR-3 [14] = test: as above; conditions: incubation time: 72 h
Experimental: as §2

DU-4475 [15] = test: as above; conditions: incubation time: 72 h
Experimental: as §2

CAL-85-1 [16] = conditions: 72 h
Outline: as §1

HDQ-P1 [17] = conditions: 72 h
Outline: as §1

CAL-51 [18] = conditions: 72 h
Outline: as §1

CAL-148 [19] = conditions: 72 h
Outline: as §1

DU-4475 [20] = conditions: 72 h
Outline: as §1

BT-474 [21] = conditions: 72 h; remark: listed apart in the source
Experimental: (§3)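 Drug sensitivity and resistance testing (DSRT) of breast cancer cell lines in 384-well plates, 5 concentrations in 10-fold dilutions over a compound-specific 10,000-fold range. After 72 h, cytotoxicity was read by CellTox Green fluorescence and viability by CellTiter-Glo luminescence (multiplexed), normalised to DMSO and benzethonium chloride controls. EC50 is the inflection point of the fitted dose-response curve (bottom asymptote free, so it can be relative for partial curves) and is censored at the highest tested concentration. Rows with DSS 0 (no meaningful response) were excluded.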

CAL-85-1 [22] = conditions: 72 h; remark: listed apart in the source
Experimental: as §3

HCC1143 [23] = conditions: 72 h; remark: listed apart in the source
Experimental: as §3

CAL-51 [24] = conditions: 72 h; remark: listed apart in the source
Experimental: as §3

MDA-MB-468 [25] = conditions: 72 h; remark: listed apart in the source
Experimental: as §3

CAL-148 [26] = conditions: 72 h; remark: listed apart in the source
Experimental: as §3

HCC1143 [27] = conditions: 72 h; remark: listed apart in the source
Outline: (§4)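 For viability and cell death testing, 384-well plates carried compound at 5 concentrations in 10-fold steps over a compound-specific 10,000-fold range, and breast cancer cell lines were seeded in 20 µl suspension. After 72 h incubation, cell death was read by CellTox Green fluorescence (485/520 nm) before viability was read by CellTiter-Glo luminescence. EC50 was fitted from the dose-response curves and censored at the top concentration. Normalisation on each plate was to 0.1 % DMSO and a positive kill control.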

HCC1599 [28] = conditions: 72 h; remark: listed apart in the source
Outline: as §4

HDQ-P1 [29] = conditions: 72 h; remark: listed apart in the source
Outline: as §4

CAL-148 [30] = conditions: 72 h; remark: listed apart in the source
Outline: as §4

MFM-223 [31] = conditions: 72 h; remark: listed apart in the source
Outline: as §4

DU-4475 [32] = conditions: 72 h; remark: listed apart in the source
Outline: as §4

MDA-MB-453 = conditions: 72 h
Experimental: as §3

Hs578T [33] = conditions: 72 h; remark: listed apart in the source
Experimental: as §3

CAL-120 [34] = conditions: 72 h; remark: listed apart in the source
Experimental: as §3

MDA-MB-231 [35] = conditions: 72 h; remark: listed apart in the source
Experimental: as §3

MCF-10A = conditions: 72 h
Experimental: as §3

MDA-MB-436 [36] = conditions: 72 h; remark: listed apart in the source
Experimental: as §3

HDQ-P1 [37] = conditions: 72 h; remark: listed apart in the source
Experimental: as §3

Row | Compound | EC50, CellTiter-Blue viability (BT-474 [1]) [nM] | EC50, CellTiter-Blue viability (Hs578T [2]) [nM] | EC50, CellTiter-Blue viability (BT-549) [nM] | EC50, CellTiter-Blue viability (HCC1143 [3]) [nM] | EC50, CellTiter-Blue viability (MDA-MB-436 [4]) [nM] | EC50, CellTiter-Blue viability (CAL-120 [5]) [nM] | EC50, CellTiter-Blue viability (MDA-MB-231 [6]) [nM] | EC50, CellTiter-Blue viability (HCC1599 [7]) [nM] | EC50, CellTiter-Blue viability (HCC1937) [nM] | EC50, CellTiter-Blue viability (MDA-MB-468 [8]) [nM] | EC50, CellTiter-Blue viability (MFM-223 [9]) [nM] | EC50, CellTiter-Blue viability (SK-BR-3 [10]) [nM] | normalised viability (BT-474 [11]; 1 nM) [%] | EC50, CellTiter-Blue viability (CAL-85-1 [16]) [nM] | EC50, CellTiter-Blue viability (HDQ-P1 [17]) [nM] | EC50, CellTiter-Blue viability (CAL-51 [18]) [nM] | EC50, CellTiter-Blue viability (CAL-148 [19]) [nM] | EC50, CellTox Green (CAL-51 [24]) [nM] | EC50, CellTiter-Glo (HCC1143 [27]) [nM] | EC50, CellTiter-Glo (HDQ-P1 [29]) [nM] | other results
1 | COc1ccc(-c2ccc3c(N4CCOC[C@@H]4C)nc(N4CCOC[C@@H]4C)nc3n2)cc1CO [AZD8055] | 83.8 | 36.9 | 61 | 79.2 | 106 | 45.4 | 47.4 | 62.8 | 15.4 | 149 | 18.7 | 20.1 | 103 | 34.7 | 23.8 | 21.9 | 34.5 | 5.2 | 40.4 | 30.5 | normalised viability (MDA-MB-231 [12]; 1 nM): 98.3%; normalised viability (HDQ-P1 [13]; 1 nM): 104%; normalised viability (SK-BR-3 [14]; 1 nM): 103%; normalised viability (DU-4475 [15]; 1 nM): 103%; EC50, CellTiter-Blue viability (DU-4475 [20]): 104 nM; EC50, CellTox Green (BT-474 [21]): 9150 nM; EC50, CellTox Green (CAL-85-1 [22]): > 10000 nM; EC50, CellTox Green (HCC1143 [23]): 1470 nM; EC50, CellTox Green (MDA-MB-468 [25]): 6940 nM; EC50, CellTox Green (CAL-148 [26]): 30.7 nM; EC50, CellTiter-Glo (HCC1599 [28]): 152 nM; EC50, CellTiter-Glo (CAL-148 [30]): 64.1 nM; EC50, CellTiter-Glo (MFM-223 [31]): 20.3 nM; EC50, CellTiter-Glo (DU-4475 [32]): 229 nM
2 | CC(C)c1c(C(=O)Nc2ccccc2)c(-c2ccccc2)c(-c2ccc(F)cc2)n1CC[C@@H](O)C[C@@H](O)CC(=O)O [Atorvastatin] |  |  |  |  |  |  |  |  |  |  |  |  |  |  |  |  |  | 668 | 2030 | 1250 | EC50, CellTox Green (MDA-MB-453): > 10000 nM; EC50, CellTox Green (Hs578T [33]): 3780 nM; EC50, CellTox Green (CAL-120 [34]): 9010 nM; EC50, CellTox Green (MDA-MB-231 [35]): 796 nM; EC50, CellTox Green (MCF-10A): 1940 nM
3 | Cn1c(=O)n(-c2ccc(C(C)(C)C#N)cc2)c2c3cc(-c4cnc5ccccc5c4)ccc3ncc21 [NVP-BEZ235] | 21.7 | 8.08 | 12.8 | 15.2 | 52.5 | 10.1 | 12.9 | 20.8 | 6.87 | 27.1 | 7.73 | 26.4 |  | 12.6 | 10.8 | 10.1 | 17.6 |  |  |  | normalised viability (BT-474 [11]; 0.1 nM): 105%; normalised viability (MDA-MB-231 [12]; 0.1 nM): 111%; normalised viability (HDQ-P1 [13]; 0.1 nM): 113%; normalised viability (SK-BR-3 [14]; 0.1 nM): 100%; normalised viability (DU-4475 [15]; 0.1 nM): 129%; EC50, CellTiter-Blue viability (DU-4475 [20]): 54 nM
4 | CN1CCN(CCOc2cc(OC3CCOCC3)c3c(Nc4c(Cl)ccc5c4OCO5)ncnc3c2)CC1 [Saracatinib] | 1540 |  | 1510 |  | > 10000 | 567 | 13.2 |  |  | 1410 |  | 6750 | 93.9 | 757 | 615 | 700 | 447 | 371 | 1330 | 541 | normalised viability (MDA-MB-231 [12]; 1 nM): 85.5%; normalised viability (HDQ-P1 [13]; 1 nM): 113%; normalised viability (SK-BR-3 [14]; 1 nM): 91.5%; normalised viability (DU-4475 [15]; 1 nM): 107%; EC50, CellTox Green (BT-474 [21]): 8130 nM; EC50, CellTox Green (CAL-85-1 [22]): 2940 nM; EC50, CellTox Green (MDA-MB-436 [36]): 1620 nM; EC50, CellTox Green (HDQ-P1 [37]): 6610 nM; EC50, CellTiter-Glo (HCC1599 [28]): 5900 nM; EC50, CellTiter-Glo (CAL-148 [30]): 2550 nM
